Data on three compounds can be found in ChEMBL document CHEMBL1144131, “The taxane diterpenoids” (J Nat Prod, 1999).

As a reminder, the IC50 is the concentration that inhibits the measured activity by half.

Structures are written as SMILES. Values after ≈ are worked out from the molar mass of the structure shown.

In this assay the test system is P388. Nature of the assay: Cytotoxicity against mouse P388 cells. Type of assay: functional, cell-based.
The compound `CC(=O)O[C@@H]1C2=C(C)C(=O)C[C@@](O)([C@@H](OC(=O)c3ccccc3)[C@@H]3[C@]4(OC(C)=O)CO[C@@H]4C[C@H](O)[C@@]3(C)[C@H]1O)C2(C)C` displayed a concentration for half-maximal inhibition (IC50) of 21 µg/mL (≈ 35.8 µM).

`C=C1[C@@H](OC(=O)/C=C/c2ccccc2)C[C@H](OC(C)=O)[C@@]2(C)[C@@H](OC(C)=O)[C@H](OC(C)=O)C3=C(C)[C@@H](OC(C)=O)C[C@@H]([C@@H](O)[C@H]12)C3(C)C` showed an IC50 of 3.9 µg/mL (≈ 5.85 µM).

The compound `CC(=O)O[C@H]1C[C@H]2OC[C@@]2(OC(C)=O)[C@H]2[C@H](OC(=O)c3ccccc3)[C@]3(C(C)(C)O)C[C@H](O)C(C)=C3[C@@H](O)[C@H](O)[C@]12C` came in with an IC50 of 44 µg/mL (≈ 74.7 µM).
